Ends that are not written are not given here.
Key:
HEK293T cells = settings: for CC50 vs HEK293T cells (source data of Figure 4a): 24 h
human red blood cells = settings: pH 7.4
[1] = test system: E. faecium ATCC 700221 - VRE; settings: ATCC 700221, 24 h
A. baumannii ATCC 19606 = settings: ATCC 19606, 24 h
E. coli ATCC 11775 = settings: ATCC 11775, 24 h
P. aeruginosa PAO1 = settings: PAO1, 24 h
E. coli AIC221 = settings: AIC221, 24 h
K. pneumoniae ATCC 13883 = settings: ATCC 13883, 24 h
P. aeruginosa PA14 = settings: PA14, 24 h

Sequence | SIcytotoxicity (HEK293T cells) | HC50 (human red blood cells) | Minimal Inhibitory Concentration, E. faecium ATCC 700221 - VRE (+) [1] [µmol/L] | Minimal Inhibitory Concentration, A. baumannii ATCC 19606 (-) (A. baumannii ATCC 19606) [µmol/L] | Minimal Inhibitory Concentration, E. coli ATCC 11775 (-) (E. coli ATCC 11775) [µmol/L] | Minimal Inhibitory Concentration, P. aeruginosa PAO1 (-) (P. aeruginosa PAO1) [µmol/L] | Minimal Inhibitory Concentration, E. coli AIC221 (-) (E. coli AIC221) [µmol/L] | Minimal Inhibitory Concentration, K. pneumoniae ATCC 13883 (-) (K. pneumoniae ATCC 13883) [µmol/L] | CC50 vs HEK293T cells (source data of Figure 4a) (HEK293T cells) [µM] | CC50 vs HEK293T cells (HEK293T cells) [µM] | Minimal Inhibitory Concentration, P. aeruginosa PA14 (-) (P. aeruginosa PA14) [µmol/L]
KKWRELSRLSRVLQIL [Conoserver-14] | 7.3 | 1826.0 | 32 | 16 | 16 | 64 | 8 |  |  |  | 
QPRRVKRFKKFFKKLKNSVKKRAKKF [ISOB-7] | 4.0 | 569.0 | 32 |  |  | 64 | 64 |  |  |  | 
KFSVFSKILRSIAKVFKGVGKVRK [Arachnoserver-27] | 2.0 | 24.2 | 8 |  | 32 |  | 8 | 4 | 7.976 |  | 
RRVKRFKKFFMKL [UniprotKB-18] | 3.1 | 1.827e+053 | 32 |  |  | 32 | 64 |  |  |  | 
ARKFKWGKLFSAGKKLLKKAKKLSKNK [Arachnoserver-11] | 2.2 | 1118.0 | 8 | 64 | 32 | 8 | 4 |  | 8.722 | 9 | 8
KLHGLLTRRSLKNFWKRNLYLR [Conoserver-6] | 7.9 | 66.3 | 32 | 32 | 64 | 16 | 4 |  | 31.74 |  | 32
RRASPLWKRRRFLSMLKARAKRTGYK [Conoserver-3] | 6.0 | 459.2 | 32 |  |  | 64 | 64 |  |  |  | 
RKFKWGKLFSTAKKLYKKGKKLSKNKNFKKALK [UniprotKB-12] | 11.9 | 604.3 | 32 | 64 | 32 | 4 | 2 |  | 23.71 |  | 4
KWGKLFSAGKKLLKKAKKL [Arachnoserver-4] | 2.4 | 1.085e+083 | 16 | 64 | 32 | 8 | 16 |  | 19.57 | 20 | 16
SFKKILSAGKKLFKKAKKL [Arachnoserver-29] | 4.3 | 1.085e+083 | 16 |  | 16 | 16 | 4 |  | 17.1 |  | 16
FLKKIWRSKLVKRL [UniprotKB-9] | 1.3 | 219457.0 |  |  |  |  |  |  | 20.18 | 20 | 16
KWLGKLGVILSHL [UniprotKB-15] | 1.4 | 1.374e+045 | 64 | 64 | 32 |  | 32 |  | 45.97 |  | 
RKFKWGSFKKILSAGKKLFKKAKKLSK [Arachnoserver-2] | 9.9 | 108.1 | 8 | 32 | 8 | 4 | 1 |  | 9.929 | 10 | 4
VNSFKIGGFIKKLWRSKLAKKLRAK [UniprotKB-19] | 10.2 | 625.9 | 4 | 64 | 64 | 8 | 16 |  | 40.64 |  | 16
RKFKWGSFKKILSAGKKLFKKAKKLSKNKNFKKALK [Arachnoserver-6] | 1.3 | 12.1 | 8 | 64 | 32 | 4 | 4 |  | 5.173 | 5 | 4
RFGSFLKKVWKSKLAKKL [UniprotKB-20] | 6.6 | 18147.0 | 8 | 64 | 32 | 8 | 16 |  | 52.53 |  | 16
RRVKRFKKFFMKLKKSVKKRVMKFFK [UniprotKB-5] | 1.1 | 103.8 | 8 | 64 | 32 | 8 | 32 |  | 8.885 | 9 | 8
RRVKRFKKFFKKL [ISOB-6] | 6.5 | 1.085e+083 | 32 |  |  | 32 |  |  |  |  | 64
RKFKWGKLFSTAKKLYKKGKKLSK [UniprotKB-16] | 5.9 | 2082.0 | 32 | 32 | 8 | 4 | 4 |  | 23.72 |  | 4
FIKKLWRSKLAKKLRAKGRELLK [UniprotKB-17] | 3.9 | 4.224e+042 | 16 | 32 | 16 | 8 | 16 |  | 30.97 |  | 16
KRFIRNLRSNLYQKIIKSTKSLLDLREKI [Arachnoserver-17] | 4.1 | 280.5 |  |  | 64 |  | 8 | 4 | 16.47 |  | 
